Row | Structure (SMILES) | melting point [°C]
1 | CC(C)n1c(=O)n(C(=O)NCC2CCN(CC3(C(=O)O)CC3)CC2)c2ccccc21.Cl | 206
2 | CC(C)n1c(=O)n(C(=O)NCC2CCN(CC3(C(=O)O)CCOCC3)CC2)c2ccccc21 [Example 1, 4-{[4-({[(3-isopropyl-2-oxo-2,3-dihydro-1H-benzimidazol-1-yl)carbonyl]amino}methyl)piperidin-1-yl]methyl}tetrahydro-2H-pyran-4-carboxylic acid] | 176
3 | CC(C)n1c(=O)n(C(=O)NCC2CCN(CC3(C(=O)O)CCCCC3)CC2)c2ccccc21 [Example 2, 1-{[4-({[(3-isopropyl-2-oxo-2,3-dihydro-1H-benzimidazol-1-yl)carbonyl]amino}methyl)piperidin-1-yl]methyl}cyclohexanecarboxylic acid] | 151
4 | CC(C)n1c(=O)n(C(=O)NCC2CCN(CC3(C(=O)O)CCCC3)CC2)c2ccccc21 [Example 3, 1-{[4-({[(3-isopropyl-2-oxo-2,3-dihydro-1H-benzimidazol-1-yl)carbonyl]amino}methyl)piperidin-1-yl]methyl}cyclopentanecarboxylic acid] | 165
5 | CC(C)n1c(=O)n(C(=O)NCC2(O)CCN(CC3(C(=O)O)CCCCC3)CC2)c2ccccc21 [Example 6, 1-{[4-hydroxy-4-({[(3-isopropyl-2-oxo-2,3-dihydro-1H-benzimidazol-1-yl)carbonyl]amino}methyl)piperidin-1-yl]methyl}cyclohexanecarboxylic acid] | 184
